Measurements published in US20080293696A1, “2-Aminoarylcarboxamides Useful as Cancer Chemotherapeutic Agents” (Bayer Pharmaceuticals Corporation, priority 2004, published 2008).

Test system: PAKT/PKB (p-(S473) AKT) in H209 small cell lung carcinoma cells stimulated with Stem Cell Factor
Experiment: PAKT/PKB Cytoblot Assay with H209 cells (SCF-stimulated p-(S473) AKT)
Assay type: cell-based
Conditions: Homo sapiens, NCI-H209, compound 1 hour, SCF 25 ng/mL 5 minutes
Description: PAKT/PKB Cytoblot Assay Protocol with H209 Cells
H209 small cell lung carcinoma cells in log phase were plated at 50,000 cells/well in 96-well poly-lysine coated, clear bottom/black-sided plates (BD Cat # 354640) in 100 μl RPMI medium containing 0.1% (w/v) BSA, and incubated overnight at 37° C. in 5% CO2 incubator. The following day, compounds (10 mM stock solutions in DMSO) were added to the plates to generate final concentrations of 0.0, 0.01, 0.03, 0.1, 0.3, 1.0, 3.0 and 10 μM for IC50 determinations and incubated for 1 hour at 37° C. Cells were then left untreated or stimulated with Stem Cell Factor (SCF: Biosource Cat # PHC2116) at a final concentration of 25 ng/mL for 5 minutes at 37° C. in 5% CO2 incubator. The media was then removed using a vacuum manifold and the cells were washed once with Tris Buffered Saline (TBS).
Cells were then fixed by adding 200 μl of cold 3.7% (v/v) formaldehyde in TBS to each well for 15 minutes at 4° C. After removal of the formaldehyde, the cells were treated with the addition of 50 μl of methanol (at −20° C.) to each well for 5 minutes. After removal of the methanol, […] of 1% (w/v) BSA in TBS was added to each well to block non-specific antibody binding sites and the plate was incubated at room temperature for 30 minutes.
After removal of the blocking buffer, 50 μl of p-(S473) AKT rabbit polyclonal antibody (Cell Signaling Cat # 9277S) was added at a dilution of 1:250 in 0.1% (w/v) BSA in TBS, and the plate was incubated at room temperature for 1 hour. Plates were then washed 3 times with cold TBS containing 0.05% (v/v) Tween 20 (TBS-T) and […] of Horseradish peroxidase (HRP)-conjugated goat-anti-rabbit antibody (Amersham Cat # NA934V) at a dilution of 1:250 in TBS-T was added and the plate was incubated at room temperature for 1 h. After washing with ice-cold TBS-T four times, 100 μl of Enhanced Chemiluminescence (ECL) reagent (Amersham Cat# RPN2209) was added to each well and mixed on a mini-orbital shaker for 1 min. The plate was then read on a Perkin Elmer Victor 5 Multilabel Counter (#1420-0421).

[1] = group: between 500 nM and 1 μM (units in value)

Compound | IC50 (group: less than 500 nM) | IC50 [1]
CCNC(=O)c1cc(CNc2ccccc2C(=O)Nc2ccc3c(c2)OC(F)(F)C(F)(F)O3)ccn1 [Example 44, N-ethyl-4-{[(2-{[(2,2,3,3-tetrafluoro-2,3-dihydro-1,4-benzodioxin-6-yl)amino]carbonyl}phenyl)amino]methyl}pyridine-2-carboxamide] | < 500 nM | 
CCNC(=O)c1cc(CNc2ccccc2C(=O)Nc2ccc3c(c2)OC(F)(F)O3)ccn1 [Example 45, 4-{[(2-{[(2,2-difluoro-1,3-benzodioxol-5-yl)amino]carbonyl}phenyl)amino]methyl}-N-ethylpyridine-2-carboxamide] | < 500 nM | 
CCNC(=O)c1cc(CNc2ccc(F)cc2C(=O)Nc2ccc3c(c2)OC(F)(F)O3)ccn1 [Example 46, 4-{[(2-{[(2,2-difluoro-1,3-benzodioxol-5-yl)amino]carbonyl}-4-fluorophenyl)amino]methyl}-N-ethylpyridine-2-carboxamide] | < 500 nM | 
CCNC(=O)c1cc(CNc2cc(F)ccc2C(=O)Nc2ccc3c(c2)OC(F)(F)O3)ccn1 [Example 47, 4-{[(2-{[(2,2-difluoro-1,3-benzodioxol-5-yl)amino]carbonyl}-5-fluorophenyl)amino]methyl}-N-ethylpyridine-2-carboxamide] | < 500 nM | 
CN(C)c1nccc(CNc2ccccc2C(=O)Nc2ccc3c(c2)OC(F)(F)O3)n1 [Example 48, N-(2,2-difluoro-1,3-benzodioxol-5-yl)-2-({[2-(dimethylamino)pyrimidin-4-yl]methyl}amino)benzamide] | < 500 nM | 
CNc1nccc(CNc2ccccc2C(=O)Nc2ccc3c(c2)OC(F)(F)O3)n1 [Example 49, N-(2,2-difluoro-1,3-benzodioxol-5-yl)-2-({[2-(methylamino)pyrimidin-4-yl]methyl}amino)benzamide] | < 500 nM | 
CN(C)c1nccc(CNc2ccccc2C(=O)Nc2ccc3c(c2)OC(F)(F)C(F)(F)O3)n1 [Example 50, 2-({[2-(dimethylamino)pyrimidin-4-yl]methyl}amino)-N-(2,2,3,3-tetrafluoro-2,3-dihydro-1,4-benzodioxin-6-yl)benzamide] |  | 500 to 1000 nM
CNc1nccc(CNc2ccccc2C(=O)Nc2ccc3c(c2)OC(F)(F)C(F)(F)O3)n1 [Example 51, 2-({[2-(methylamino)pyrimidin-4-yl]methyl}amino)-N-(2,2,3,3-tetrafluoro-2,3-dihydro-1,4-benzodioxin-6-yl)benzamide] | < 500 nM | 
O=C(NC1CC1)c1cc(CNc2ccccc2C(=O)Nc2ccc3c(c2)OC(F)(F)O3)ccn1 [Example 74, N-cyclopropyl-4-{[(2-{[(2,2-difluoro-1,3-benzodioxol-5-yl)amino]carbonyl}phenyl)amino]methyl}pyridine-2-carboxamide] | < 500 nM | 
NC(=O)c1cc(CNc2ccccc2C(=O)Nc2ccc3c(c2)OC(F)(F)O3)ccn1 [Example 75, 4-{[(2-{[(2,2-Difluoro-1,3-benzodioxol-5-yl)amino]carbonyl}phenyl)amino]methyl}pyridine-2-carboxamide] | < 500 nM | 
COC(=O)c1cc(CNc2ccccc2C(=O)Nc2ccc3c(c2)OC(F)(F)O3)ccn1 [Example 76, methyl 4-{[(2-{[(2,2-difluoro-1,3-benzodioxol-5-yl)amino]-carbonyl}phenyl)amino]methyl}pyridine-2-carboxylate] | < 500 nM | 
CC1(C)OCC(CNC(=O)c2cc(CNc3ccccc3C(=O)Nc3ccc4c(c3)OC(F)(F)O4)ccn2)O1 (centres unmarked) [Example 78, 4-{[(2-{[(2,2-Difluoro-1,3-benzodioxol-5-yl)amino]carbonyl}phenyl)amino]methyl}-N-[(2,2-dimethyl-1,3-dioxolan-4-yl)methyl]pyridine-2-carboxamide] |  | 500 to 1000 nM
O=C(NCC(O)CO)c1cc(CNc2ccccc2C(=O)Nc2ccc3c(c2)OC(F)(F)O3)ccn1 (centres unmarked) [Example 79, 4-{[(2-{[(2,2-Difluoro-1,3-benzodioxol-5-yl)amino]carbonyl}phenyl)amino]methyl}-N-(2,3-dihydroxypropyl)pyridine-2-carboxamide] | < 500 nM | 
CN(C)C(=O)c1cc(CNc2ccccc2C(=O)Nc2ccc3c(c2)OC(F)(F)O3)ccn1 [Example 80, 4-{[(2-{[(2,2-Difluoro-1,3-benzodioxol-5-yl)amino]carbonyl}phenyl)amino]methyl}-N,N-dimethylpyridine-2-carboxamide] |  | 500 to 1000 nM
CCOC(=O)c1cc(CNc2ccccc2C(=O)Nc2ccc3c(c2)OC(F)(F)O3)ccn1 [Example 82, Ethyl 4-{[(2-{[(2,2-difluoro-1,3-benzodioxol-5-yl)amino]carbonyl}phenyl)amino]methyl}pyridine-2-carboxylate] | < 500 nM | 
CS(=O)(=O)CCNC(=O)c1cc(CNc2ccccc2C(=O)Nc2ccc3c(c2)OC(F)(F)O3)ccn1 [Example 83, 4-{[(2-{[(2,2-Difluoro-1,3-benzodioxol-5-yl)amino]carbonyl}phenyl)amino]methyl}-N-[2-(methylsulfonyl)ethyl]pyridine-2-carboxamide] | < 500 nM | 
CCN1CCCC1CNC(=O)c1cc(CNc2ccccc2C(=O)Nc2ccc3c(c2)OC(F)(F)O3)ccn1 (centres unmarked) [Example 84, 4-{[(2-{[(2,2-difluoro-1,3-benzodioxol-5-yl)amino]carbonyl}phenyl)amino]methyl}-N-[(1-ethylpyrrolidin-2-yl)methyl]pyridine-2-carboxamide] |  | 500 to 1000 nM
CN(C)CCNC(=O)c1cc(CNc2ccccc2C(=O)Nc2ccc3c(c2)OC(F)(F)O3)ccn1 [Example 85, 4-{[(2-{[(2,2-difluoro-1,3-benzodioxol-5-yl)amino]carbonyl}phenyl)amino]methyl}-N-[2-(dimethylamino)ethyl]pyridine-2-carboxamide] | < 500 nM | 
CN(C)CCCNC(=O)c1cc(CNc2ccccc2C(=O)Nc2ccc3c(c2)OC(F)(F)O3)ccn1 [Example 86, 4-{[(2-{[(2,2-difluoro-1,3-benzodioxol-5-yl)amino]carbonyl}phenyl)amino]methyl}-N-[3-(dimethylamino)propyl]pyridine2-carboxamide] | < 500 nM | 
CCN(CC)CCCNC(=O)c1cc(CNc2ccccc2C(=O)Nc2ccc3c(c2)OC(F)(F)O3)ccn1 [Example 87, N-[3-(diethylamino)propyl]-4-{[(2-{[(2,2-difluoro-1,3-benzodioxol-5-yl)amino]carbonyl}phenyl)amino]methyl}pyridine-2-carboxamide] | < 500 nM | 
CCN(CC)CCNC(=O)c1cc(CNc2ccccc2C(=O)Nc2ccc3c(c2)OC(F)(F)O3)ccn1 [Example 88, N-[2-(diethylamino)ethyl]-4-{[(2{[(2,2-difluoro-1,3-benzodioxol-5-yl)amino]carbonyl}phenyl)amino]methyl}pyridine-2-carboxamide] | < 500 nM | 
COCCCNC(=O)c1cc(CNc2ccccc2C(=O)Nc2ccc3c(c2)OC(F)(F)O3)ccn1 [Example 89, 4-{[(2-{[(2,2-difluoro-1,3-benzodioxol-5-yl)amino]carbonyl}phenyl)amino]methyl}-N-(3-methoxypropyl)pyridine-2-carboxamide] | < 500 nM | 
CN(C)CCCCNC(=O)c1cc(CNc2ccccc2C(=O)Nc2ccc3c(c2)OC(F)(F)O3)ccn1 [Example 90, 4-{[(2-{[(2,2-difluoro-1,3-benzodioxol-5-yl)amino]carbonyl}phenyl)amino]methyl}-N-[4-(dimethylamino)butyl]pyridine-2-carboxamide] |  | 500 to 1000 nM
